In brackets after ≈: the same amount, converted by molar mass.

Assay type in all cases: functional
Test [1] concerns Acinetobacter baumannii. Kind of test: Antimicrobial activity against Acinetobacter baumannii OC 11738 expressing beta-lactamase OXA-23 and containing Carbapenemase assessed as inhibition of growth by broth dilution method. (In general: Dilution methods test growth across graded concentrations, often in twofold steps.)
Test [2] concerns Serratia marcescens. Kind of test: Antimicrobial activity against wild type Serratia marcescens OC 7555 deficient in beta-lactamase assessed as inhibition of growth by broth dilution method.
Test [3] has as its system Pseudomonas aeruginosa. Kind of test: Antimicrobial activity against Pseudomonas aeruginosa OC 4352 overexpressing beta-lactamase AmpC assessed as inhibition of growth by broth dilution method.
In test [4] the test system is Escherichia coli. Kind of test: Antimicrobial activity against wild type Escherichia coli ATCC 25922 deficient in beta-lactamase assessed as inhibition of growth by broth dilution method.
The next test concerns Enterobacter cloacae. The test is described as follows: Antimicrobial activity against Enterobacter cloacae OC 4080 overexpressing beta-lactamase AmpC assessed as inhibition of growth by broth dilution method.
Test [5] relates to Escherichia coli. The test is described as follows: Antimicrobial activity against Escherichia coli OC 11732 expressing extended-spectrum beta-lactamase CTX-M-15 assessed as inhibition of growth by broth dilution method.
The test system of test [6] is Klebsiella pneumoniae. Kind of test: Antimicrobial activity against wild type Klebsiella pneumoniae OC 15263 expressing beta-lactamase SHV-1 assessed as inhibition of growth by broth dilution method.
In another test the test system is Klebsiella oxytoca. The test is described as follows: Antimicrobial activity against wild type Klebsiella oxytoca OC 4076 expressing Beta-lactamase K1 assessed as inhibition of growth by broth dilution method.
Test [7] has as its system Klebsiella pneumoniae. The test is described as follows: Antimicrobial activity against Klebsiella pneumoniae OC 5367 expressing beta-lactamase KPC-2 and containing Carbapenemase assessed as inhibition of growth by broth dilution method.
Test [8] has as its system Pseudomonas aeruginosa. Kind of test: Antimicrobial activity against Pseudomonas aeruginosa OC 13996 expressing beta-lactamase IMP-1 and containing Carbapenemase assessed as inhibition of growth by broth dilution method.
For test [9], the system named is Pseudomonas aeruginosa. The test is described as follows: Antimicrobial activity against wild type Pseudomonas aeruginosa ATCC 27853 expressing beta-lactamase AmpC assessed as inhibition of growth by broth dilution method.
For test [10], the system named is Escherichia coli. The test is described as follows: Antimicrobial activity against Escherichia coli DH5-alpha expressing beta-lactamase TEM-1 assessed as inhibition of growth by broth dilution method.
Test [11] has as its system Escherichia coli. Kind of test: Antimicrobial activity against Escherichia coli OC 6697 expressing beta-lactamase CMY-2 and containing plasmid AmpC assessed as inhibition of growth by broth dilution method.
For test [12], the system named is Pseudomonas aeruginosa. The test is described as follows: Antimicrobial activity against Pseudomonas aeruginosa OC 12115 expressing beta-lactamase SPM-1 and containing Carbapenemase assessed as inhibition of growth by broth dilution method.
The test system of test [13] is Acinetobacter baumannii. Kind of test: Antimicrobial activity against wild type Acinetobacter baumannii OC 16708 deficient in beta-lactamase assessed as inhibition of growth by broth dilution method.
The subject of test [14] is Serratia marcescens. The test is described as follows: Antimicrobial activity against wild type Serratia marcescens OC 7554 expressing beta-lactamase SME-3 and containing Carbapenemase assessed as inhibition of growth by broth dilution method.
Test [15] deals with Pseudomonas aeruginosa. The test is described as follows: Antimicrobial activity against Pseudomonas aeruginosa OC 4083 expressing beta-lactamase OXA-10 and containing Oxacillinase assessed as inhibition of growth by broth dilution method.
Test [16] concerns Pseudomonas aeruginosa. Kind of test: Antimicrobial activity against Pseudomonas aeruginosa OC 7052 expressing beta-lactamase VIM-2 and containing Carbapenemase assessed as inhibition of growth by broth dilution method.
In test [17] the test system is Klebsiella pneumoniae. The test is described as follows: Antimicrobial activity against Klebsiella pneumoniae OC 4238 overexpressing beta-lactamase SHV-1 assessed as inhibition of growth by broth dilution method.
The test system of test [18] is Klebsiella pneumoniae. Kind of test: Antimicrobial activity against Klebsiella pneumoniae OC 4094 expressing extended-spectrum Beta-lactamase TEM-26 assessed as inhibition of growth by broth dilution method.

Broadly, the MIC is the smallest concentration in the dilution series that meets the test's criterion for growth inhibition. As to `CC(C)(O/N=C(\C(=O)N[C@@H]1C(=O)N2C(C(=O)[O-])=C(C[n+]3ccccc3)CS[C@H]12)c1csc(N)n1)C(=O)O` [CEFTAZIDIME], the MIC with Acinetobacter baumannii [1] is more than 256 µg/mL; in the test on Serratia marcescens [2] it was 0.5 µg/mL (≈ 0.915 µM); with Pseudomonas aeruginosa [3], 32 µg/mL (≈ 58.5 µM); in the test with Escherichia coli [4], 0.25 µg/mL (≈ 0.457 µM); in the test on Enterobacter cloacae it was 32 µg/mL (≈ 58.5 µM); with Escherichia coli [5], 32 µg/mL (≈ 58.5 µM). Besides, the minimal inhibitory concentration (MIC) in the test with Klebsiella pneumoniae [6] was 0.12 µg/mL (≈ 0.22 µM); in the test with Klebsiella oxytoca, 1 µg/mL (≈ 1.83 µM); with Klebsiella pneumoniae [7] it was 32 µg/mL (≈ 58.5 µM); with Pseudomonas aeruginosa [8], more than 256 µg/mL; in the test with Pseudomonas aeruginosa [9], 2 µg/mL (≈ 3.66 µM); in the test with Escherichia coli [10] it was 0.5 µg/mL (≈ 0.915 µM). The minimum inhibitory concentration (MIC) with Escherichia coli [11] was more than 128 µg/mL; in the test on Pseudomonas aeruginosa [12] it was more than 256 µg/mL; in the test with Acinetobacter baumannii [13] it was 4 µg/mL (≈ 7.32 µM); in the test with Serratia marcescens [14], 0.5 µg/mL (≈ 0.915 µM); in the test on Pseudomonas aeruginosa [15], more than 4 µg/mL; with Pseudomonas aeruginosa [16], 64 µg/mL (≈ 117 µM). In addition, the MIC in the test with Klebsiella pneumoniae [17] is 2 µg/mL (≈ 3.66 µM); in the test on Klebsiella pneumoniae [18] it was more than 256 µg/mL.
Take `C[C@@H](O)[C@H]1C(=O)N2C(C(=O)O)=C(S[C@@H]3CN[C@H](CNS(N)(=O)=O)C3)[C@H](C)[C@H]12` [DORIPENEM]: the minimum inhibitory concentration (MIC) in the test on Acinetobacter baumannii [1] amounted to 32 µg/mL (≈ 76.1 µM); in the test with Serratia marcescens [2], 0.06 µg/mL (≈ 0.143 µM); with Pseudomonas aeruginosa [3], 0.5 µg/mL (≈ 1.19 µM); in the test with Escherichia coli [4] it was 0.03 µg/mL (≈ 0.0713 µM); with Enterobacter cloacae, 0.25 µg/mL (≈ 0.595 µM); with Escherichia coli [5], 0.06 µg/mL (≈ 0.143 µM). The minimum inhibitory concentration (MIC) is 0.06 µg/mL (≈ 0.143 µM) in the test on Klebsiella pneumoniae [6]; 0.06 µg/mL (≈ 0.143 µM) in the test with Klebsiella oxytoca; 8 µg/mL (≈ 19 µM) in the test with Klebsiella pneumoniae [7]; more than 256 µg/mL in the test on Pseudomonas aeruginosa [8]; 0.5 µg/mL (≈ 1.19 µM) in the test with Pseudomonas aeruginosa [9]; 0.06 µg/mL (≈ 0.143 µM) in the test with Escherichia coli [10]. Moreover, the MIC was 0.06 µg/mL (≈ 0.143 µM) in the test on Escherichia coli [11]; more than 256 µg/mL with Pseudomonas aeruginosa [12]; 0.25 µg/mL (≈ 0.595 µM) in the test with Acinetobacter baumannii [13]; 128 µg/mL (≈ 304 µM) in the test on Serratia marcescens [14]; 2 µg/mL (≈ 4.76 µM) in the test on Pseudomonas aeruginosa [15]; 32 µg/mL (≈ 76.1 µM) in the test with Pseudomonas aeruginosa [16]. The MIC in the test with Klebsiella pneumoniae [17] amounted to 0.06 µg/mL (≈ 0.143 µM); with Klebsiella pneumoniae [18], 0.12 µg/mL (≈ 0.285 µM).
Regarding `C[C@@H](O)[C@H]1C(=O)N2C(C(=O)O)=C(SCCNC=N)C[C@H]12` [IMIPENEM ANHYDROUS], the MIC turned out to be 64 µg/mL (≈ 214 µM) in the test on Acinetobacter baumannii [1]; 0.25 µg/mL (≈ 0.835 µM) with Serratia marcescens [2]; 2 µg/mL (≈ 6.68 µM) with Pseudomonas aeruginosa [3]; 1 µg/mL (≈ 3.34 µM) with Enterobacter cloacae; 0.25 µg/mL (≈ 0.835 µM) with Escherichia coli [5]; 0.5 µg/mL (≈ 1.67 µM) in the test on Klebsiella pneumoniae [6]. The MIC in the test on Klebsiella oxytoca was 0.25 µg/mL (≈ 0.835 µM); with Klebsiella pneumoniae [7] it was 16 µg/mL (≈ 53.4 µM); in the test on Pseudomonas aeruginosa [8], more than 256 µg/mL; with Pseudomonas aeruginosa [9], 2 µg/mL (≈ 6.68 µM); in the test with Escherichia coli [11] it was 0.5 µg/mL (≈ 1.67 µM); with Pseudomonas aeruginosa [12], more than 256 µg/mL. Besides, the MIC was 0.25 µg/mL (≈ 0.835 µM) in the test with Acinetobacter baumannii [13]; more than 256 µg/mL in the test on Serratia marcescens [14]; 1 µg/mL (≈ 3.34 µM) in the test with Pseudomonas aeruginosa [15]; 64 µg/mL (≈ 214 µM) in the test on Pseudomonas aeruginosa [16]; 0.25 µg/mL (≈ 0.835 µM) in the test with Klebsiella pneumoniae [17]; 0.5 µg/mL (≈ 1.67 µM) with Klebsiella pneumoniae [18].
As for `C[C@@H](O)[C@H]1C(=O)N2C(C(=O)O)=C(S[C@@H]3CN[C@H](C(=O)N(C)C)C3)[C@H](C)[C@H]12` [MEROPENEM], the MIC in the test with Acinetobacter baumannii [1] is 64 µg/mL (≈ 167 µM); in the test on Serratia marcescens [2], 0.03 µg/mL (≈ 0.0782 µM); in the test on Pseudomonas aeruginosa [3], 0.5 µg/mL (≈ 1.3 µM); in the test with Escherichia coli [4] it was 0.03 µg/mL (≈ 0.0782 µM); in the test on Enterobacter cloacae, 0.25 µg/mL (≈ 0.652 µM); in the test with Escherichia coli [5], 0.03 µg/mL (≈ 0.0782 µM). Further, the MIC in the test on Klebsiella pneumoniae [6] was 0.03 µg/mL (≈ 0.0782 µM); in the test on Klebsiella oxytoca, 0.06 µg/mL (≈ 0.156 µM); with Pseudomonas aeruginosa [8], more than 256 µg/mL; in the test on Pseudomonas aeruginosa [9] it was 0.5 µg/mL (≈ 1.3 µM); with Escherichia coli [10] it was 0.03 µg/mL (≈ 0.0782 µM); in the test with Escherichia coli [11], 0.06 µg/mL (≈ 0.156 µM). Moreover, the MIC is more than 256 µg/mL in the test on Pseudomonas aeruginosa [12]; 0.25 µg/mL (≈ 0.652 µM) in the test on Acinetobacter baumannii [13]; 128 µg/mL (≈ 334 µM) in the test with Serratia marcescens [14]; 2 µg/mL (≈ 5.22 µM) with Pseudomonas aeruginosa [15]; 32 µg/mL (≈ 83.4 µM) in the test on Pseudomonas aeruginosa [16]; 0.03 µg/mL (≈ 0.0782 µM) in the test on Klebsiella pneumoniae [17]. Besides, the minimal inhibitory concentration (MIC) in the test with Klebsiella pneumoniae [18] came to 0.06 µg/mL (≈ 0.156 µM).

The values are drawn from ChEMBL document CHEMBL1212772 (2010).
